US8355136B2, “Sub-micron surface plasmon resonance sensor systems” (Indiana University Research and Technology Corporation, priority 2005, dated 2013)
Like-named read-outs stand apart in the source and are kept apart here. One block for each compound: values may come before it.

Key:
[1] = Biacore 3000
GOx [2] = target: T1, GOx (Aspergillus niger, UniProt P13006); assay: MSPR sensor monitoring of Gox enzymatic activity under substrate flow; details: for enzymatic activity response of Gox: flow of substrate, concentration not given
GOx [3] = target: T1, GOx; details: for relative rate ± error / Ssubstrate − SL-Glu / Isubstrate / S/N / signal (Ibaseline − Isubstrate): 100 mM in PBS, 660 nm; for relative rate ± error: from exponential fits to the time series; for Ssubstrate − SL-Glu: signal minus L-Glu reference signal; for Isubstrate / S/N / signal (Ibaseline − Isubstrate): single MSPRS
Experimental: The resonance measured at 660 nm wavelength was used to monitor reaction kinetics because it had the least overlap with neighboring peaks and because it lay in the red-NIR (near infra-red) optical window of tissue transparency, which allows use of MSPRSs to study complex media like blood, blood plasma and serum.
After depositing the cross-linker, we rinsed the end of the tubing for 10 s with DI-water using a 1 mL syringe. […] After the MSPR sensor signal reached a stable plateau indicating reaction saturation, the sensors were rinsed with DI-water until no further change in signal was recorded.

GOx [4] = target: T1, GOx; details: cited from earlier work
[5] = Biacore 3000 bare-gold-surface SPR chip, gold-DTSSP binding
[6] = MSPR sensor, monolayer formation / adsorption kinetics on the gold surface

T1 sequence (P13006 23-605 limits assumed): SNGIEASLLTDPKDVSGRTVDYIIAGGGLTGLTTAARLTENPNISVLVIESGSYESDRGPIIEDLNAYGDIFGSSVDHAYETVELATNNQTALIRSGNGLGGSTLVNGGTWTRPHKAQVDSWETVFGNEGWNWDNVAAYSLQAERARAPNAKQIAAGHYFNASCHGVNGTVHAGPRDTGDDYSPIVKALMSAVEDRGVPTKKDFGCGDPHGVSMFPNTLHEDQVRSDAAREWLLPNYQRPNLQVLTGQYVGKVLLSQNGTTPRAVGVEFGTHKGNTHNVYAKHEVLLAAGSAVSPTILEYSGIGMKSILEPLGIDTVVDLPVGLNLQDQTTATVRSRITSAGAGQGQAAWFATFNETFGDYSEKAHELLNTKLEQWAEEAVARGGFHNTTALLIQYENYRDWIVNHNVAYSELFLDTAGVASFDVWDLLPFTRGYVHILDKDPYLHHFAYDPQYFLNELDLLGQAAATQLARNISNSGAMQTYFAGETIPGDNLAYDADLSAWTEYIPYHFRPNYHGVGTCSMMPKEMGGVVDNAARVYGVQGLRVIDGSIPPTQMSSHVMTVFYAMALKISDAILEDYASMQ

Compound: glucose oxidase [GOx]
SPR binding signal [1]: 553 RU
reaction time, DTSSP-GOx binding ([1]; exponential fitting): 211 ± 4 s
decrease of output signal on binding (6.25 μM in DI-water, from DTSSP baseline): 1,424 counts/s
reaction time, DTSSP-GOx binding (Example 6, MSPR sensor, exponential fit): 211 ± 4 s

Compound: O=C[C@@H](O)[C@H](O)[C@@H](O)[C@@H](O)CO [L-Glu, L-Glucose]
enzymatic activity response of Gox (GOx [2]): no enzymatic activity response
relative rate ± error (GOx [3]): 0.00 ± 0%
Ssubstrate − SL-Glu (GOx [3]): 0 counts/s
Isubstrate (GOx [3]): 22236 counts/s
S/N (GOx [3]): 21 (13.2 dB)
signal (Ibaseline − Isubstrate) (GOx [3]): 521 counts/s
interaction between substrate and sensor (GOx [3]; wash-in and wash-out, PBS baseline): absence of both specific and non-specific interactions
reaction rate with GOx as % of the βD-Glu rate (GOx [4]): 0%

SPR binding signal [5]: 643 RU
reaction time, gold-DTSSP binding ([5]; exponential fitting): 184 ± 3 s
reaction time, gold-DTSSP binding ([6]; Example 6, MSPR sensor, 660 nm, exponential fit): 209 ± 7 s
Compound: O=C(CCSSCCC(=O)ON1C(=O)CC(S(=O)(=O)O)C1=O)ON1C(=O)CC(S(=O)(=O)O)C1=O (centres unmarked) [DTSSP]
time constant of monolayer formation ([6]; Example 5, phosphate buffer pH 5.8 and DI water): 105 ± 8 s
gold-DTSSP reaction time longer on MSPR sensor than on Biacore ([6]; MSPR sensor versus Biacore 3000): ca. 12%
decrease of MSPR sensor-emitted intensity at 660 nm ([6]; saturated gold-DTSSP reaction, from water baseline): 1,481 counts/s

Compound: OC[C@H]1O[C@@H](O)[C@H](O)[C@@H](O)[C@@H]1O [β-D+Glucose]
enzymatic activity of Gox detected (GOx [2]; 1 mM in PBS 1×): the response was much slower
enzymatic activity of Gox detected (GOx [2]; 100 mM in PBS 1×): able to detect the enzymatic activity

Compound: OC[C@H]1OC(O)[C@@H](O)[C@@H](O)[C@@H]1O (stereo partly drawn) [D-Man]
relative rate ± error (GOx [3]): 0.24 ± 28%
Ssubstrate − SL-Glu (GOx [3]): 58 counts/s
Isubstrate (GOx [3]): 22168 counts/s
S/N (GOx [3]): 36 (15.5 dB)
signal (Ibaseline − Isubstrate) (GOx [3]): 579 counts/s
reaction rate with GOx as % of the βD-Glu rate (GOx [4]): 1%

Compound: O=CC[C@@H](O)[C@H](O)[C@H](O)CO [2Do-Glu, 2-Deoxy-D-Glucose]
enzymatic activity response of Gox (GOx [2]): no enzymatic activity response
relative rate ± error (GOx [3]): 0.06 ± 65%
Ssubstrate − SL-Glu (GOx [3]): 14 counts/s
Isubstrate (GOx [3]): 22190 counts/s
S/N (GOx [3]): 57 (17.5 dB)
signal (Ibaseline − Isubstrate) (GOx [3]): 535 counts/s
reaction rate with GOx as % of the βD-Glu rate (GOx [4]): 20%

Compound: CCCCCCCCCCCCS [dodecanethiol]
time constant for the film formation ([6]; 100 mM concentration, from ethanol, first order exponential decay fit): 382 ± 7 s

Compound: OC[C@H]1O[C@H](O)[C@H](O)[C@@H](O)[C@@H]1O [αD-Glu, α-D-glucose]
reaction rate with GOx as % of the βD-Glu rate (GOx [4]): 0.64%
